Assay results taken from a compilation of properties of binary mixtures (doi:10.1021/acs.jpcb.5b11900).

Test: xn = mol fraction of the nth substance listed
Conditions: 101 kPa

CC[N+](CC)(CC)CC.O=[N+]([O-])[O-] + CC[NH3+].O=[N+]([O-])[O-]
Conditions | electrical conductivity [S/m] | viscosity [mPa·s]
293.15 K, x1 = 0.0501 | 1.56 | 50.7
293.15 K, x1 = 0.1 | 1.27 | 60.1
293.15 K, x1 = 0.2001 | 0.797 | 91.6
293.15 K, x1 = 0.2567 | 0.623 | 122
293.15 K, x1 = 0.2995 | 0.392 | 144
293.15 K, x1 = 0.35 | 0.359 | 211
298.15 K, x1 = 0.0501 | 1.83 | 42.2
298.15 K, x1 = 0.1 | 1.5 | 49.6
298.15 K, x1 = 0.15 | 1.21 | 60.4
298.15 K, x1 = 0.2001 | 0.96 | 74
298.15 K, x1 = 0.2567 | 0.762 | 96.9
298.15 K, x1 = 0.2995 | – | 114
298.15 K, x1 = 0.35 | 0.462 | 167
303.15 K, x1 = 0.1 | 1.76 | 41.4
303.15 K, x1 = 0.2001 | 1.14 | 60.7
303.15 K, x1 = 0.2567 | 0.912 | 78.3
303.15 K, x1 = 0.2995 | 0.594 | 91.3
308.15 K, x1 = 0.0501 | 2.44 | 30.3
308.15 K, x1 = 0.1 | 2.03 | 35.5
308.15 K, x1 = 0.15 | 1.65 | 41.9
308.15 K, x1 = 0.2567 | 1.08 | 64.1
308.15 K, x1 = 0.2995 | 0.715 | 74.2
308.15 K, x1 = 0.35 | 0.671 | 104
313.15 K, x1 = 0.0501 | 2.78 | 26
313.15 K, x1 = 0.15 | 1.91 | 35.6
313.15 K, x1 = 0.2001 | 1.56 | 42.4
313.15 K, x1 = 0.2567 | 1.26 | 53.4
313.15 K, x1 = 0.2995 | 0.848 | 61.3
313.15 K, x1 = 0.35 | 0.804 | 85.4
318.15 K, x1 = 0.0501 | 3.14 | 22.5
318.15 K, x1 = 0.1 | 2.65 | 26.1
318.15 K, x1 = 0.15 | 2.17 | 30.4
318.15 K, x1 = 0.2001 | 1.79 | 35.9
318.15 K, x1 = 0.2567 | 1.46 | 44.7
318.15 K, x1 = 0.35 | 0.948 | 69.4
323.15 K, x1 = 0.0501 | 3.52 | 19.7
323.15 K, x1 = 0.1 | 2.99 | 22.7
323.15 K, x1 = 0.2001 | 2.04 | 30.7
323.15 K, x1 = 0.2567 | 1.68 | 37.9
323.15 K, x1 = 0.2995 | 1.22 | 42.8
323.15 K, x1 = 0.35 | 1.11 | 57.6
328.15 K, x1 = 0.0501 | – | 17.3
328.15 K, x1 = 0.1 | – | 19.9
328.15 K, x1 = 0.15 | – | 22.8
328.15 K, x1 = 0.2995 | – | 36.4
333.15 K, x1 = 0.0501 | – | 15.3
333.15 K, x1 = 0.1 | – | 17.5
333.15 K, x1 = 0.2001 | – | 23.2
333.15 K, x1 = 0.2567 | – | 28.1
333.15 K, x1 = 0.2995 | – | 31.3
333.15 K, x1 = 0.35 | – | 41.5
338.15 K, x1 = 0.0501 | – | 13.7
338.15 K, x1 = 0.1 | – | 15.5
338.15 K, x1 = 0.15 | – | 17.7
338.15 K, x1 = 0.2001 | – | 20.3
338.15 K, x1 = 0.2567 | – | 24.3
338.15 K, x1 = 0.2995 | – | 27
338.15 K, x1 = 0.35 | – | 35.1
343.15 K, x1 = 0.0501 | – | 12.3
343.15 K, x1 = 0.1 | – | 13.6
343.15 K, x1 = 0.2001 | – | 18
343.15 K, x1 = 0.2567 | – | 21.4
343.15 K, x1 = 0.2995 | – | 23.6
343.15 K, x1 = 0.35 | – | 30.2
348.15 K, x1 = 0.0501 | – | 11.1
348.15 K, x1 = 0.1 | – | 12.2
348.15 K, x1 = 0.15 | – | 14.1
348.15 K, x1 = 0.2567 | – | 18.9
348.15 K, x1 = 0.2995 | – | 20.7
353.15 K, x1 = 0.0501 | – | 10
353.15 K, x1 = 0.15 | – | 12.7
353.15 K, x1 = 0.2001 | – | 14.4
353.15 K, x1 = 0.2567 | – | 16.9
353.15 K, x1 = 0.2995 | – | 18.4

CC[NH3+].O=[N+]([O-])[O-] + CC[NH2+]CC.O=[N+]([O-])[O-]
x2 = 0
Conditions | electrical conductivity [S/m] | viscosity [mPa·s]
288.15 K | 1.62 | –
293.15 K | 1.93 | 43.5
298.15 K | 2.25 | 36.5
303.15 K | 2.6 | 31
308.15 K | 2.97 | 26.5
313.15 K | 3.37 | 22.8
318.15 K | 3.78 | 20
328.15 K | – | 15.6
338.15 K | – | 12.5
348.15 K | – | 10.2
353.15 K | – | 9.21
